Reference: patent US20240325381A1 (GUANGZHOU INSTITUTES OF BIOMEDICINE AND HEALTH, CHINESE …, priority 2021, published 2024)

Legend:
Type in all cases: cell-based
[1] = tested on: Mito-GFP-labeled neural precursor cells; test: Clearance of mitochondria by flunarizine in mito-GFP-labeled neural precursor cells (confocal microscopy); settings: for mitochondrial morphology in neural precursor cells: 3 days
Description: Mito-GFP-labeled neural precursor cells were plated on a 6-well plate, and the surface coverage of the neural precursor cells on the 6-well plate was 80%. […] Then, the cells were detected with a confocal microscopy and the clearance efficiency of the mitochondrial was observed.
The mito-GFP-labeled neural precursor cells were plated on a 6-well plate, and the surface coverage of the neural precursor cells on the 6-well plate was 80%. […] Then, the results were detected with a confocal microscope and the efficiency of the mitochondrial clearance was observed.

[2] = tested on: neural precursor cells labeled with LC3-GFP and mito-DsRed; test: Co-localization of mitochondria with LC3-GFP labeled autophagosomes (confocal microscope); settings: 15 μM flunarizine, 12 hours
Description: The neural precursor cells labeled with LC3-GFP and mito-DsRed were plated on the glass slides, and the surface coverage of the neural precursor cells on the glass slides was 80%. […] Then, the results were detected with a confocal microscope.

[3] = tested on: neural precursor cells labeled with LAMP1-GFP and mito-DsRed; test: Mitochondria entering lysosomes (LAMP1-GFP / mito-DsRed overlap); settings: 15 μM flunarizine, 12 hours
Description: The neural precursor cells labeled with LAMP1-GFP and mito-DsRed were plated on a glass slide, and the surface coverage of the neural precursor cells on the glass slide was 80%. […] Then, the results were detected with a confocal microscope.

[4] = tested on: Mito-GFP-labeled mouse embryonic fibroblasts (MEF cells); test: Mitochondrial clearance in MEF cells with mitophagy core genes knocked off; settings: 15 μM flunarizine, 3 days; WT, ATG5, PARK2, FUNDC1
Description: Mito-GFP-labeled mouse embryonic fibroblasts (MEF cells) were plated on a glass slide. The corresponding classic mitophagy core genes (including WT, ATG5, PARK2, and FUNDC1) in the MEF cells were knocked off. The surface coverage of the cells on the glass slide was 80%. […] Then, the cells were detected with a confocal microscope.

[5] = tested on: Mito-GFP-labeled neural precursor cells; test: Mitochondrial clearance after knockdown of classic mitophagy core genes in neural precursor cells; settings: 15 μM flunarizine, 3 days; shTRC, shATG5-a/b, shPINK1-a/b, shFUNDC1-a/b
Description: The corresponding classic mitophagy core genes (including shTRC, shATG5-a, shATG5-b, shPINK1-a, shPINK1-b, shFUNDC1-a, and shFUNDC1-b) in mito-GFP-labeled neural precursor cells were knocked down. Then, the cells were plated on a glass slide, the surface coverage of neural precursor cells on the glass slide was 80%. […] Thereafter, the cells were detected with a confocal microscope. The specific results are illustrated in FIG. 3B and FIG. 3C.

[6] = tested on: Mito-DsRed-labeled neural precursor cells; test: Mitochondrial efflux (mitochondria, lysosome and cell membrane overlap); settings: 15 μM flunarizine, 24 hours; Lysotraker DeepRed, FM1-43
Description: Mito-DsRed-labeled neural precursor cells were plated on a glass slide, and the surface coverage of the neural precursor cells on the glass slide was 80%. […] The final concentration was 15 μM. The lysosomes were labeled with Lysotraker DeepRed, the cell membranes were labeled with FM1-43, and then the results were detected with a confocal microscope.

Fc1ccc(C(c2ccc(F)cc2)N2CCN(C/C=C/c3ccccc3)CC2)cc1 [flunarizine]
removal of intracellular mitochondria ([1]; 15 μM flunarizine, 3 days of treatment, 80% surface coverage): substantially completely removed | concentration that can effectively remove the mitochondria in the cells ([1]; after 3 days of treatment, tested 5, 10, 15, 20, 25 μM): above 10 μM | removal of intracellular mitochondria ([1]; contact time more than 3 days): completely removed | mitochondrial morphology in neural precursor cells ([1]; final concentration 15 μM): basically not observed | mitochondrial morphology in neural precursor cells ([1]; final concentration 20 μM): basically not observed | mitochondrial morphology in neural precursor cells ([1]; final concentration 25 μM): basically not observed | co-localization of mitochondria with LC3-GFP labeled autophagosomes [2]: not co-localized with LC3-GFP labeled autophagosomes | overlap of LAMP1 and mito (mitochondria entering lysosomes) [3]: wrapped by lysosomes | mitochondrial clearance in MEF cells with mitophagy genes knocked off [4]: knockdown of mitophagy-related genes cannot inhibit mitochondrial clearance | mitochondrial clearance after knockdown of mitophagy core genes [5]: knockdown of related genes could not inhibit mitochondrial clearance | mitochondrial efflux vesicles on the cell surface [6]: efflux vesicles wrapped around mitochondria were formed
